Source: patent US11753445B2, “Therapeutic peptides” (COHBAR, INC., priority 2016, dated 2023)
Peptide text beside a SMILES is read from it.

Assays:
3T3-L1 Adipocytes = experiment: Free fatty acid levels in cultured mouse 3T3-L1 adipocytes, isoproterenol stimulated (Example 2); type: cell-based; settings: test peptides 25 μM; isoproterenol 1 nM
Method in brief: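 3T3-L1 cells differentiated 12–17 days into adipocytes, then exposed to test peptides at 25 μM final for 18–20 h, then 1 h, then 3 h with isoproterenol (1 nM) at 37 °C. Free fatty acids in the medium measured colorimetrically at 540 nm, corrected for untreated background and expressed relative to isoproterenol-only cells.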

[1] = Stability in mouse plasma, peptides 10 uM (Example 15); type: in vitro ADME; settings: mouse plasma 37° C., peptide 10 uM; for remaining at 0.25 h, 10 uM / remaining at 0.5 h, 10 uM / remaining at 1 h, 10 uM / remaining at 2 h, 10 uM / remaining at 3 h, 10 uM: pooled mouse plasma; for remaining at 0.25 h, 10 uM: 15 min, read-out: % Remaining at Each Time Point: 15 min; for remaining at 0.5 h, 10 uM: 30 min, read-out: % Remaining at Each Time Point: 30 min; for remaining at 1 h, 10 uM: 60 min, read-out: % Remaining at Each Time Point: 60 min; for remaining at 2 h, 10 uM: 120 min, read-out: % Remaining at Each Time Point: 120 min; for remaining at 3 h, 10 uM: 180 min, read-out: % Remaining at Each Time Point: 180 min
Procedure: Peptides (10 uM) were incubated in pooled mouse plasma at 37° C. and samples were removed and immediately analyzed for the concentration of intact peptide by LC/MS/MS over the course of 3 hours. The percent of peptide remaining in plasma at each time point was calculated relative to the initial peak area (Table 13).

Compound | Free Fatty Acid Levels in 3T3-L1 Adipocytes Expressed as a Percent of Isoproterenol Control: Percent of Control Value (3T3-L1 Adipocytes) [%] | % Remaining at Each Time Point: 0 min [1] [%] | remaining at 0.25 h, 10 uM [1] [%] | remaining at 0.5 h, 10 uM [1] [%] | remaining at 1 h, 10 uM [1] [%] | remaining at 2 h, 10 uM [1] [%] | remaining at 3 h, 10 uM [1] [%]
H-RWQEMNYIFEPR-OH [compound 249] | 81.3 | 100 | 46.7 | 40.5 | 28.3 | 15.8 | 11.1
Ac-MRWQEMNYIFYPR-OH [compound 286] | 94.8 | 100 | 88.4 | 74.7 | 57.1 | 36.4 | 25.9
H-MRWQEMNYIFYP-OH [compound 282] | 71.8 | 100 | 34.9 | 25.7 | 1.92 | 0.41 | 0.29
H-RWQEENYIAYPR-OH [compound 260] | 75.9 | 100 | 79.4 | 68.8 | 53.1 | 35.7 | 35.9
CC[C@H](C)[C@H](NC(=O)[C@H](Cc1ccc(O)cc1)NC(=O)[C@H](CC(N)=O)NC(=O)[C@H](CCSC)NC(=O)[C@H](CCC(=O)O)NC(=O)[C@H](CCC(N)=O)NC(=O)[C@H](Cc1c[nH]c2ccccc12)NC(=O)[C@H](CCCNC(=N)N)NC(=O)[C@@H](C)N)C(=O)N[C@@H](Cc1ccccc1)C(=O)N[C@@H](Cc1ccc(O)cc1)C(=O)N1CCC[C@H]1C(=O)N[C@@H](CCCNC(=N)N)C(=O)O [compound 288] (HELM PEPTIDE1{[dA].R.W.Q.E.M.N.Y.I.F.Y.P.R}$$$$V2.0) | 93.0 | 100 | 90 | 81.9 | 77.4 | 69.2 | 67
H-WQEMNYIFYPR-OH [compound 284] | 97.1 | 100 | 75.3 | 60.1 | 41.1 | 22.1 | 13.7
H-QEMGYIFYPRKL-OH [compound 270] | 66.9 | 100 | 13.8 | 3.22 | 0.59 | 0.36 | 0.21
H-RWQEEQYIAYPR-OH [compound 265] | 66.7 | 100 | 83.3 | 74.5 | 54.9 | 56 | 51.7
H-RWQEMGYIFYPRKL-OH [compound 268] | 41.9 | 100 | 76.1 | 49.5 | 20.3 | 0.48 | 0
H-RWQEMNYIAYPR-OH [compound 250] | 83.0 | 100 | 63.2 | 54.1 | 35.9 | 20 | 11.7
H-RWQEEQYIAEPR-OH [compound 266] | 72.7 | 100 | 70.7 | 72.3 | 38.3 | 74.8 | 51.1
H-WQEMGYIFYPRKL-OH [compound 269] | 59.2 | 100 | 70 | 45.8 | 17.2 | 2.64 | 0.43
CC[C@H](C)[C@H](NC(=O)[C@H](Cc1ccc(O)cc1)NC(=O)CNC(=O)[C@H](CCSC)NC(=O)[C@H](CCC(=O)O)NC(=O)[C@H](CCC(N)=O)NC(=O)[C@H](Cc1c[nH]c2ccccc12)NC(=O)[C@H](CCCNC(=N)N)NC(=O)[C@H](CCSC)NC(C)=O)C(=O)N[C@@H](Cc1ccccc1)C(=O)N[C@@H](Cc1ccc(O)cc1)C(=O)N[C@H](C)C(=O)N[C@@H](CCCNC(=N)N)C(=O)N[C@@H](CCCCN)C(=O)N[C@@H](CC(C)C)C(=O)N[C@@H](CCCNC(=N)N)C(N)=O [compound 163] (HELM PEPTIDE1{[ac].M.R.W.Q.E.M.G.Y.I.F.Y.[dA].R.K.L.R.[am]}$$$$V2.0) | 91.8 | – | – | – | – | – | –
H-MGWQEMGYIFYPRKLR-OH [compound 77] | 112.5 | – | – | – | – | – | –
CC[C@H](C)[C@H](NC(=O)[C@H](Cc1ccc(O)cc1)NC(=O)CNC(=O)[C@H](C)NC(=O)[C@H](CCC(=O)O)NC(=O)[C@H](CCC(N)=O)NC(=O)[C@H](Cc1c[nH]c2ccccc12)NC(=O)[C@H](CCCNC(=N)N)NC(=O)[C@@H](N)CCC(=O)O)C(=O)N[C@@H](C)C(=O)N[C@@H](Cc1ccc(O)cc1)C(=O)N1CCC[C@H]1C(=O)N[C@@H](CCCNC(=N)N)C(=O)N[C@@H](CCCCN)C(=O)N[C@@H](CC(C)C)C(=O)N[C@H](C)C(=O)O [compound 240] (HELM PEPTIDE1{E.R.W.Q.E.A.G.Y.I.A.Y.P.R.K.L.[dA]}$$$$V2.0) | 48.6 | – | – | – | – | – | –
Ac-MRWQEMGYIFEPRKLR-NH2 [compound 192] | 66.8 | – | – | – | – | – | –
H-MEWQEMGYIFYPRKLR-OH [compound 169] | 49.2 | – | – | – | – | – | –
CC[C@H](C)[C@H](NC(=O)[C@H](Cc1ccc(O)cc1)NC(=O)CNC(=O)[C@H](CCSC)NC(=O)[C@H](CCC(=O)O)NC(=O)[C@H](CCC(N)=O)NC(=O)[C@H](Cc1c[nH]c2ccccc12)NC(=O)[C@H](CCCNC(=N)N)NC(=O)[C@@H](N)CCSC)C(=O)N[C@H](C)C(=O)N[C@@H](Cc1ccc(O)cc1)C(=O)N1CCC[C@H]1C(=O)N[C@@H](CCCNC(=N)N)C(=O)N[C@@H](CCCCN)C(=O)N[C@@H](CC(C)C)C(=O)N[C@@H](CCCNC(=N)N)C(=O)O [compound 145] (HELM PEPTIDE1{M.R.W.Q.E.M.G.Y.I.[dA].Y.P.R.K.L.R}$$$$V2.0) | 50.2 | – | – | – | – | – | –
Ac-MRWQEMGYIFYPRELR-NH2 [compound 195] | 58.9 | – | – | – | – | – | –
CC[C@H](C)[C@H](NC(=O)[C@H](Cc1ccc(O)cc1)NC(=O)CNC(=O)[C@H](CCSC)NC(=O)[C@H](CCC(=O)O)NC(=O)[C@H](CCC(N)=O)NC(=O)[C@H](Cc1c[nH]c2ccccc12)NC(=O)[C@H](CCCNC(=N)N)NC(=O)[C@@H](N)CCSC)C(=O)N[C@@H](Cc1ccccc1)C(=O)N[C@@H](Cc1ccc(O)cc1)C(=O)N[C@H](C)C(=O)N[C@@H](CCCNC(=N)N)C(=O)N[C@@H](CCCCN)C(=O)N[C@@H](CC(C)C)C(=O)N[C@@H](CCCNC(=N)N)C(=O)O [compound 147] (HELM PEPTIDE1{M.R.W.Q.E.M.G.Y.I.F.Y.[dA].R.K.L.R}$$$$V2.0) | 60.9 | – | – | – | – | – | –
H-ERWQEAGYIFYPR-OH [compound 235] | 71.8 | – | – | – | – | – | –
Ac-MKWQEMGYIFYPRKLR-NH2 [compound 128] | 90.0 | – | – | – | – | – | –
H-RWQEMNYIFYPR-OH [compound 248] | 50.4 | – | – | – | – | – | –
Ac-MRWQEMGYIFYPRALR-NH2 [compound 35] | 31.3 | – | – | – | – | – | –
CC[C@H](C)[C@H](NC(=O)[C@H](Cc1ccc(O)cc1)NC(=O)CNC(=O)[C@H](CCC(=O)O)NC(=O)[C@H](CCC(=O)O)NC(=O)[C@H](CCC(N)=O)NC(=O)[C@H](Cc1c[nH]c2ccccc12)NC(=O)[C@H](CCCNC(=N)N)NC(=O)[C@@H](C)N)C(=O)N[C@@H](C)C(=O)N[C@@H](Cc1ccc(O)cc1)C(=O)N1CCC[C@H]1C(=O)N[C@@H](CCCNC(=N)N)C(=O)N[C@@H](CCCCN)C(=O)N[C@@H](CC(C)C)C(=O)N[C@@H](C)C(=O)O [compound 236] (HELM PEPTIDE1{[dA].R.W.Q.E.E.G.Y.I.A.Y.P.R.K.L.A}$$$$V2.0) | 74.8 | – | – | – | – | – | –
H-MRWQEMGEIFYPRKLR-OH [compound 174] | 38.8 | – | – | – | – | – | –
